Measurements reported in patent US9498513B2, “Antimicrobial bacteria strains and uses thereof” (priority 2010, dated 2016).

What was measured:
S. aureus (MRSA) = assay: Antimicrobial activity against susceptible and resistant strains (dilution); format: cell-based, Staphylococcus aureus; conditions: given as dilution ratio; antibiotics 1.28 mg/ml
Procedure: (§1) A concentrated antimicrobial compound (CAC) was prepared as an antimicrobial agent. 2.1 L of an overnight bacterial culture of G346a was centrifuged at 10,000× g for 20 min, and then subject to 0.2 μm filtration. The supernatant was subject to 10-15% TCA precipitation for 1 hour, and then centrifugation at 4,000× for 20 min. The pellet was re-suspended in 3 mL 50 mM NH4HCO3, and then neutralized with 320 μL NH4OH. The resulting concentrated antimicrobial compound (CAC) was tested for its antimicrobial activity against susceptible and resistant strains as shown in TABLE 5.

A. Baumannii (MDR) = assay: as above; format: cell-based, Acinetobacter baumannii; conditions: given as dilution ratio; antibiotics 1.28 mg/ml
Procedure: as §1

| SMILES | antimicrobial activity S. aureus (MRSA) (S. aureus (MRSA)) | antimicrobial activity A. Baumannii (MDR) (A. Baumannii (MDR)) |
| --- | --- | --- |
| CC1(C)S[C@@H]2[C@H](NC(=O)C(C(=O)O)c3ccccc3)C(=O)N2[C@H]1C(=O)O (stereo partly shown) [Carbenicillin] | No | No Inhibition |
| CC1(C)S[C@@H]2[C@H](NC(=O)[C@H](N)c3ccccc3)C(=O)N2[C@H]1C(=O)O [Ampicillin] | No | No Inhibition |
